Test results reported in patent publication US11045489B2, “Prognostic methods and systems of treatment for acute lymphoblastic leukemia” (MOR RESEARCH APPLICATIONS LTD., priority 2014, dated 2021).

What was measured:
[1] = tested on: Nalm-6 cells; assay: NAD assay in Nalm-6 cells treated with FK866; format: cell-based; conditions: 1 nM, 1, 3 and 6 hours
Method: (§1) NAMPT is the rate-limiting enzyme in the NAD^+ biosynthetic pathway. Thus, NAD^+ levels in the stimulated cells were measured using a standard NAD^+ assay (Biovision NADH/NAD Quantification Kit).
(§2) Nalm-6 cells were treated for 1, 3, and 6 hours with 1 nM FK866 (Sigma) and NAD^+ formation was measured using NAD assay as described. […] To measure the effect of NAD^+ depletion following FK866 treatment on Nalm-6 cells, apoptosis and viability were measured. Nalm-6 cells were treated for 48 hours with 1 nM FK866 and apoptosis was measured using FACS.

[2] = tested on: Nalm-6 cells; assay: Apoptosis by FACS in Nalm-6 cells treated with FK866; format: cell-based; conditions: 1 nM, 48 hours
Method: as §2

[3] = tested on: Nalm-6 cells; assay: Sensitivity to FK866 (NAD+ levels) of NALM-6 cells transfected with miR-451 mimic or inhibitor; format: cell-based; conditions: 3 hours
Method: The sensitivity of NALM-6 cells to the NAMPT inhibitor FK866 was measured in cells following transfection with miR-451 mimic or miR-451 inhibitor (FIG. 8). The sensitivity was measured by levels of NAD^+. […] Thus, miR-451 expression can distinguish between patients that could benefit from treatment with NAMPT inhibitors, such as FK866.

[4] = tested on: NAMPT; assay: NAMPT expression by FACS after TPA treatment; format: cell-based; conditions: Peripheral blood cells, 50 ng/ml TPA, 24 hours
Method: Studies by several investigators have shown that 12-0-tetradecanoylphorbol-13-acetate (TPA) (Sigma) is an extraordinarily potent tumor promoter and stimulates protein kinase C (PKC). Since NAMPT is over-expressed in several tumors, it was believed that it might be possible to achieve NAMPT stimulation by TPA treatment. To test this hypothesis. Peripheral blood cells were treated with 50 ng/ml TPA for 24 hours and NAMPT expression was measured by FACS using a specific NAMPT antibody.

[5] = tested on: cellular NAD^+ levels; assay: NAD+ assay in TPA stimulated cells; format: cell-based
Method: as §1

[6] = tested on: Nalm-6 cells; assay: Tumor growth of transfected Nalm-6 cells injected s.c. into NOD/SCID mice; format: in vivo
Method: To further study the putative tumor-suppressive function of hsa-miR-451 in vivo, 10^7 viable Nalm-6 untransfected cells, transfected in vitro with miR-451, or transfected with scrambled control nucleic acid, were injected s.c. into the right flanks of 6-week-old female NOD/SCID mice. […] On day 26, the median tumor volume in the scrambled control mice and the miR-451 mice were 204.69 mm^3 (SE=63.96) and 23.32 mm^3 (SE=13.12) respectively (P=0.019). At the end of the experiment mice were sacrificed and the tumors were weighted. The median tumor weight in the scrambled control mice and the miR-451 mice were 0.0966 gr (SE=0.040) and 0.0159 gr (SE=0.0009) respectively (P=0.046) (FIG. 4C).

[7] = tested on: NAMPT; assay: NAMPT expression by FACS in transfected Nalm-6 cells; format: cell-based; conditions: P<0.05
Method: To determine the effects of miR-451 on NAMPT expression, Nalm-6 cells were transfected with miR-451 mimic (SEQ ID NO: 2) and miR-451 inhibitor (GeneCopoeia miArrest miR-451, an inhibitor expression clone) and NAMPT expression was measured by FACS analysis using a specific NAMPT antibody.

[8] = tested on: NAMPT 3′-UTR; assay: Luciferase reporter assay with NAMPT 3′-UTR; format: cell-based; conditions: P<0.05
Method: To confirm that NAMPT is a direct target of miR-451, luciferase reporter vectors were generated that contained the NAMPT 3′-UTR (LightSwitch NAMPT 3′UTR Reporter GoClone). Luciferase reporter assays (LightSwitch Luciferase Assay; SwitchGear) were then performed in the presence and absence of miR-451mimic and inhibitor to determine whether NAMPT was a direct downstream target of miR-451. The relative luciferase activity of the reporter that contained NAMPT 3′-UTR was decreased in 80% when miR-451 mimics were transfected.

[9] = tested on: SOCS4; assay: SOCS4 protein levels by Western blotting in transfected Nalm6 cells; format: cell-based; conditions: Nalm6 cell line, over-expression of miR-1290, Western blotting
Method: Following transfection of miR-1290 mimic (SEQ ID NO: 4, over-expression), miR-1290 inhibitor (SEQ ID NO: 5, silencing), and miR-scramble (control), into the Nalm6 cell line, the protein levels of SOCS4 were measured using Western blotting (p=0.029; FIG. 9). The values shown in the figure are mean±S.D from 3 experiments.

[10] = tested on: Phosphorylated STAT5; assay: Phospho-STAT5 levels by FACS in transfected NALM-6 cells; format: cell-based; conditions: NALM-6 cell line
Method: Phosphorylated STAT5 (phospho-STAT5) levels were measured by FACS analysis following transfection of miR-1290 mimic (overexpression) into NALM-6 cell line. An increase of 50% in the levels of pSTAT5 protein is evident in the cells expressing high levels of miR-1290 (FIG. 11).

## O=C(/C=C/c1cccnc1)NCCCCC1CCN(C(=O)c2ccccc2)CC1 [FK866]
[1]
  NAD^+ detection following treatment: gradual decrease
[2]
  apoptosis: induced apoptosis
[3]; Nalm-6/miR-451 cells (miR-451 mimic)
  change in NAD+ production after FK866 treatment compared to Nalm-6/miR-NC: less change
[3]; Nalm-6/miR-inhibitor cells, p=0.003
  change in NAD+ production after FK866 treatment compared to Nalm-6/miR-NC: more than 5 fold

## CCCCCCCCCCCCCC(=O)O[C@@H]1[C@@H](C)[C@@]2(O)[C@@H](C=C(CO)C[C@]3(O)C(=O)C(C)=C[C@@H]23)[C@H]2C(C)(C)[C@]12OC(C)=O [TPA, 12-0-tetradecanoylphorbol-13-acetate]
[4]
  increase in NAMPT expression levels: more than 4 folds
[5]
  cellular NAD^+ levels higher: 2 fold

## miR-451 mimic: miR-451 mimic (SEQ ID NO: 2) transfected into Nalm-6 cells by electroporation (AAACCGUUACCAUUACUGAGUU; listed as RNA, chemistry not given here; listed as Homo sapiens)
[6]; NOD/SCID mice, Nalm-6/miR-451 cells s.c., versus scrambled miR control
  tumor growth: significantly decreased tumor growth
[6]; day 26, NOD/SCID mice, Nalm-6 cells transfected in vitro, P=0.019 vs scrambled control
  median tumor volume: 23.32 mm^3
[6]; end of the experiment, NOD/SCID mice, P=0.046 vs scrambled control
  median tumor weight: 0.0159 gr
[7]
  NAMPT protein expression decreased by: 46%
[8]
  relative luciferase activity of NAMPT 3′-UTR reporter decreased: 80%

## miR-1290 mimic: miR-1290 mimic (SEQ ID NO: 4, over-expression) transfected into Nalm6 cell line (UGGAUUUUUGGAUCACCUGAUCCAAAAAU; listed as RNA, chemistry not given here)
[9]
  SOCS4 protein levels: down-regulation
[10]
  increase in the levels of pSTAT5 protein: 50%
